Reference: ChEMBL document CHEMBL1158858, “(2,4-cis and trans)-gigantecinone and 4-deoxygigantecin, bioactive nonadjacent bis-tetrahydrofuran annonaceous acetogenins, from Goniothalamus giganteus” (J Nat Prod, 1997)
In brackets after ≈: the same amount, converted by molar mass.

Experiments:
[1] = system: MCF7; assay: Cytotoxicity against human MCF7 cells after 7 days by MTT assay; format: functional; details: MCF7, 168 h, read-out: ED50 (the source's name)
[2] = (§1) Toxicity to brine shrimp; format: organism-based; details: artemia, in vivo
[3] = system: HT-29; assay: Cytotoxicity against human HT29 cells after 7 days by MTT assay; format: functional; details: HT-29, 168 h, read-out: ED50 (the source's name)
[4] = system: A549; assay: Cytotoxicity against human A549 cells after 7 days by MTT assay; format: functional; details: for EC50: Homo sapiens, A549, 168 h, read-out: ED50 (the source's name)
[5] = system: MIA PaCa-2; assay: Cytotoxicity against human MIAPaCa2 cells after 7 days by MTT assay; format: functional; details: MIA PaCa-2, 168 h, read-out: ED50 (the source's name)
[6] = system: Artemia; assay: as §1; format: organism-based; details: in vivo
[7] = system: A498; assay: Cytotoxicity against human A498 cells after 7 days by MTT assay; format: functional; details: A498, 168 h, read-out: ED50 (the source's name)
[8] = system: Aedes aegypti; assay: Insecticidal activity against yellow fever mosquito larvae by microtiter plate assay; format: functional
[9] = system: PC-3; assay: Cytotoxicity against human PC3 cells after 7 days by MTT assay; format: functional; details: PC-3, 168 h, read-out: ED50 (the source's name)

## CCCCCCCCCCCC[C@@H](O)[C@H]1CC[C@H]([C@H](O)CC[C@H](O)[C@@H]2CC[C@@H](CCCCC[C@@H](O)CC3=C[C@H](C)OC3=O)O2)O1 [GIGANTECIN]
[1]
  EC50: 0.411 µg/mL (≈ 0.643 µM)
[2]
  LC50: 222 µg/mL (≈ 347 µM)
[3]
  EC50: 0.268 µg/mL (≈ 0.419 µM)
[4]
  ED50: 2.19 ×10⁻⁷ ug/ml

## CCCCCCCCCCCC[C@@H](O)[C@H]1CC[C@H]([C@H](O)CC[C@H](O)[C@@H]2CC[C@@H](CCCCC[C@@H]3CC(CC(C)=O)C(=O)O3)O2)O1 (some centres undefined)
[1]
  EC50: > 1 µg/mL
[5]
  EC50: > 1 µg/mL
[6]
  LC50: 3.27 ppm
[7]
  EC50: 0.212 µg/mL (≈ 0.332 µM)
[3]
  EC50: > 1 µg/mL
[8]
  LC50: 0.27 µg/mL (≈ 0.423 µM)
[4]
  EC50: 0.214 µg/mL (≈ 0.335 µM)
[9]
  EC50: 0.00108 µg/mL (≈ 0.00169 µM)

## CCCCCCCCCCCC[C@@H](O)[C@H]1CC[C@H]([C@H]2CC[C@@H]([C@@H]3CC[C@@H](CCCCC[C@@H]4CC(CC(C)=O)C(=O)O4)O3)OCO2)O1 (mixture of isomers)
[1]
  EC50: > 1 µg/mL
[5]
  EC50: > 1 µg/mL
[7]
  EC50: 0.271 µg/mL
[3]
  EC50: > 1 µg/mL
[4]
  EC50: 0.252 µg/mL
[9]
  EC50: 0.00306 µg/mL

## CCCCCCCCCCCC[C@@H](O)[C@H]1CC[C@H]([C@H]2CC[C@@H]([C@@H]3CC[C@@H](CCCCCCCC4=C[C@H](C)OC4=O)O3)OCO2)O1
[1]
  EC50: 0.495 µg/mL (≈ 0.78 µM)
[5]
  EC50: 0.217 µg/mL (≈ 0.342 µM)
[7]
  EC50: 0.162 µg/mL (≈ 0.255 µM)
[3]
  EC50: 0.183 µg/mL (≈ 0.288 µM)
[4]
  EC50: 0.0382 µg/mL (≈ 0.0602 µM)
[9]
  EC50: 0.132 µg/mL (≈ 0.208 µM)

## CCCCCCCCCCCC[C@@H](O)[C@H]1CC[C@H]([C@H](O)CC[C@H](O)[C@@H]2CC[C@@H](CCCCCCCC3=C[C@H](C)OC3=O)O2)O1
[1]
  EC50: 1 µg/mL (≈ 1.61 µM)
[5]
  EC50: 0.393 µg/mL (≈ 0.631 µM)
[6]
  LC50: 0.04 ppm
[7]
  EC50: 0.328 µg/mL (≈ 0.527 µM)
[3]
  EC50: 0.143 µg/mL (≈ 0.23 µM)
[8]
  LC50: 0.68 µg/mL (≈ 1.09 µM)
[4]
  EC50: 0.131 µg/mL (≈ 0.21 µM)
[9]
  EC50: 0.15 µg/mL (≈ 0.241 µM)

## COc1cccc2c1C(=O)c1c(O)c3c(c(O)c1C2=O)C[C@@](O)(C(=O)CO)C[C@@H]3O[C@H]1C[C@H](N)[C@H](O)[C@H](C)O1 [DOXORUBICIN]
[1]
  EC50: 0.369 µg/mL (≈ 0.679 µM)
[5]
  EC50: 0.00142 µg/mL (≈ 0.00261 µM)
[7]
  EC50: 0.113 µg/mL (≈ 0.208 µM)
[3]
  EC50: 0.725 µg/mL (≈ 1.33 µM)
[4]
  EC50: 0.00393 µg/mL (≈ 0.00723 µM)
[9]
  EC50: 0.0146 µg/mL (≈ 0.0269 µM)

## C=C(C)[C@H]1Cc2c(ccc3c2O[C@@H]2COc4cc(OC)c(OC)cc4[C@@H]2C3=O)O1 [ROTENONE]
[8]
  LC50: 0.75 µg/mL (≈ 1.9 µM)
